Reference: patent US20090191253A2 (Creabilis Therapeutics S.P.A., priority 2005, published 2009)

Legend:
[1] = target: T1, CHK1 (Homo sapiens, UniProt O14757); experiment: Kinase inhibition profiling CHK1 (IMAP); type: biochemical
T1 construct: His (N); made in house; host or cells: baculovirus expression system
Description: (§1) Each test compound was weighed and dissolved in DMSO to make 1 mM stock solution. The stock solution was diluted with DMSO to achieve 20 μM. The compound solution was diluted with the assay buffer to achieve 0.8 μM.

[2] = target: T2, FAK (Homo sapiens, UniProt Q05397); experiment: Kinase inhibition profiling FAK (ELISA); type: biochemical
T2 construct: made in house; host or cells: baculovirus expression system
Description: as §1

[3] = target: T3, JAK1 (Homo sapiens, UniProt P23458); experiment: Kinase inhibition profiling JAK1 (ELISA); type: biochemical
T3 construct: Kinase domain (KD) of human JAK1 [838-1142 amino; made in house; host or cells: baculovirus expression system
Description: as §1

[4] = target: T4, SRC (Homo sapiens, UniProt P12931); experiment: Kinase inhibition profiling SRC (ELISA); type: biochemical
T4 construct: made in house; host or cells: baculovirus expression system
Description: as §1

[5] = target: T5, PKCα (Homo sapiens, UniProt P17252); experiment: Kinase inhibition profiling PKCα (IMAP); type: biochemical
T5 construct: made in house; host or cells: baculovirus expression system
Description: as §1

[6] = target: T6, EphB4 (Homo sapiens, UniProt P54760); experiment: Kinase inhibition profiling EphB4 (ELISA); type: biochemical
T6 construct: Cytoplasmic domain of human EphB4 [577-987 amino; made in house; host or cells: baculovirus expression system
Description: as §1

[7] = target: T7, MAP2K7 (Homo sapiens, UniProt O14733, S271E/S277E/T275E); experiment: Kinase inhibition profiling MAP2K7 (AlphaScreen, cascade); type: biochemical
T7 construct: T275E, S277E] derived from wild type [419 amino acids; GST (N); made in house; host or cells: E. coli
Excerpt: AlphaScreen Assay [drawing 4]

[8] = target: T8, FGFR2 (Homo sapiens, UniProt P21802); experiment: Kinase inhibition profiling FGFR2 (ELISA); type: biochemical; note: ATP 20 µM
T8 construct: Cytoplasmic domain of human FGFR2 [399-821 amino; made in house; host or cells: baculovirus expression system
Description: as §1

[9] = target: T9, CHK2 (Homo sapiens, UniProt O96017); experiment: Kinase inhibition profiling CHK2 (IMAP); type: biochemical
T9 construct: His (N); made in house; host or cells: baculovirus expression system
Description: as §1

[10] = target: T10, MET (Homo sapiens, UniProt P08581); experiment: Kinase inhibition profiling MET (ELISA); type: biochemical; note: ATP 20 µM
T10 construct: made in house; host or cells: baculovirus expression system
Description: as §1

[11] = target: T11, CDK2/cyclinA (Homo sapiens, UniProt P24941); experiment: Kinase inhibition profiling CDK2/cyclinA (IMAP); type: biochemical
T11 construct: His (N); made in house; host or cells: baculovirus expression system
Description: as §1

[12] = target: T12, KIT (Homo sapiens, UniProt P10721); experiment: Kinase inhibition profiling KIT (ELISA); type: biochemical
T12 construct: made in house; host or cells: baculovirus expression system
Description: as §1

[13] = target: T13, Erk2 (Homo sapiens, UniProt P28482); experiment: Kinase inhibition profiling Erk2 (IMAP); type: biochemical
T13 construct: Human Erk2 containing 360 amino acids was expressed; His (N); made in house; host or cells: E. coli
Description: as §1

[14] = test system: bovine aorta smooth muscle cells (BASMC); experiment: Chemotaxis assay, HMGB1-induced migration (modified Boyden chambers); type: cell-based; conditions: K-252a 3, 10, 30, 100 nM; HMGB-1 25 ng/ml; overnight migration
Description: Chemotaxis assays were performed using a well known and validated protocol (1). Modified Boyden chambers were used with filters having 5-8 μm pore size and treated with collagen I (100 μg/ml in 0.5 M acetic acid) and fibronectin (10 μg/ml, Roche). BASMC (bovine aorta smooth muscle cells) were cultured in serum-free DMEM and a sample of 20,000-40,000 cells was added to the upper well of a Boyden chamber. […] Overnight cell migration was allowed at 37+/−0.5° C., then cells were scraped off and filters were fixed in methanol and stained in a solution of 10% crystal violet in 20% methanol. All experiments were performed at least twice in triplicate. […] Random cell migration, i.e. migration in the absence of chemoattractant, was given the arbitrary value of 100%. Statistical analysis was performed using Student's t test for pairwise comparisons of treatment, or an ANOVA model for the evaluation of treatments with increasing concentrations of a reagent.

[15] = test system: bovine aorta smooth muscle cells (BASMC); experiment: Proliferation assay, HMGB1-induced BASMC proliferation; type: cell-based; conditions: K-252a 3, 10, 30, 100 or 300 nM; HMGB1 25 ng/ml (1 nM); days 1-4
Description: Proliferation assays were performed using an already described and validated method (1). BASMC cells (bovine aorta smooth muscle cells) were seeded in 6-well plates (10^5 cells/well) and grown in RPMI medium supplemented with 20% FCS. After 24 h, the medium was replaced with serum-free RPMI and cell were then starved for 16 hours to synchronize the cell population. […] Each experimental point represents the mean+/−SD of triplicate determinations. The experiment was repeated three times. BASMC cell proliferation was determined by detaching the cells from the plate at the indicated times (on days 1, 2, 3, and 4 of culturing) and counting the Trypan-blue excluding cells under the microscope.

[16] = target: T14, JNK1 (Homo sapiens, UniProt P45983); experiment: Kinase inhibition profiling JNK1 (ELISA); type: biochemical
T14 construct: Human JNK1 containing 364 amino acids was expressed; His (C); made in house; host or cells: E. coli
Description: as §1

[17] = target: TrkC (Homo sapiens, UniProt Q16288); experiment: Kinase inhibition profiling TrkC (ELISA)
Description: In particular, the target kinases were Tyrosine kinases and Serine/Threonine kinases.
as §1

[18] = target: T15, JAK2 (Homo sapiens, UniProt O60674); experiment: Kinase inhibition profiling JAK2 (ELISA); type: biochemical
T15 construct: Kinase domain (KD) of human JAK2 [826-1132 amino; made in house; host or cells: baculovirus expression system
Description: as §1

[19] = target: T16, PKCε (Homo sapiens, UniProt Q02156); experiment: Kinase inhibition profiling PKCε (IMAP); type: biochemical
T16 construct: made in house; host or cells: baculovirus expression system
Description: as §1

[20] = target: T17, HMGB1 (Homo sapiens, UniProt P09429); experiment: Fluorescence assays of K-252a/HMGB1 interaction; type: binding
T17 construct: host or cells: bacteria (inferred from the mention of bacterial contaminants)

[21] = target: T18, FLT3 (Homo sapiens, UniProt P36888); experiment: Kinase inhibition profiling FLT3 (ELISA); type: biochemical
T18 construct: made in house; host or cells: baculovirus expression system
Description: as §1

[22] = target: T19, Erk1 (Homo sapiens, UniProt P27361); experiment: Kinase inhibition profiling Erk1 (IMAP); type: biochemical
T19 construct: Human Erk1 containing 379 amino acids was expressed; His (N); made in house; host or cells: E. coli
Description: as §1

[23] = test system: p38β; experiment: Kinase inhibition profiling p38β (IMAP); type: biochemical, human; conditions: K-252a 200 nM, ATP 10 μM
Description: as §1

[24] = target: T20, ABL (Homo sapiens, UniProt P00519); experiment: Kinase inhibition profiling ABL (ELISA); type: biochemical
T20 construct: made in house; host or cells: baculovirus expression system
Description: as §1

[25] = target: T21, BLK (Homo sapiens, UniProt P51451); experiment: Kinase inhibition profiling BLK (ELISA); type: biochemical
T21 construct: made in house; host or cells: baculovirus expression system
Description: as §1

[26] = target: T22, MAPKAPK2 (Homo sapiens, UniProt P49137); experiment: Kinase inhibition profiling MAPKAPK2 (IMAP); type: biochemical
T22 construct: His (N); made in house; host or cells: baculovirus expression system
Description: as §1

T16 sequence (Q02156 whole entry): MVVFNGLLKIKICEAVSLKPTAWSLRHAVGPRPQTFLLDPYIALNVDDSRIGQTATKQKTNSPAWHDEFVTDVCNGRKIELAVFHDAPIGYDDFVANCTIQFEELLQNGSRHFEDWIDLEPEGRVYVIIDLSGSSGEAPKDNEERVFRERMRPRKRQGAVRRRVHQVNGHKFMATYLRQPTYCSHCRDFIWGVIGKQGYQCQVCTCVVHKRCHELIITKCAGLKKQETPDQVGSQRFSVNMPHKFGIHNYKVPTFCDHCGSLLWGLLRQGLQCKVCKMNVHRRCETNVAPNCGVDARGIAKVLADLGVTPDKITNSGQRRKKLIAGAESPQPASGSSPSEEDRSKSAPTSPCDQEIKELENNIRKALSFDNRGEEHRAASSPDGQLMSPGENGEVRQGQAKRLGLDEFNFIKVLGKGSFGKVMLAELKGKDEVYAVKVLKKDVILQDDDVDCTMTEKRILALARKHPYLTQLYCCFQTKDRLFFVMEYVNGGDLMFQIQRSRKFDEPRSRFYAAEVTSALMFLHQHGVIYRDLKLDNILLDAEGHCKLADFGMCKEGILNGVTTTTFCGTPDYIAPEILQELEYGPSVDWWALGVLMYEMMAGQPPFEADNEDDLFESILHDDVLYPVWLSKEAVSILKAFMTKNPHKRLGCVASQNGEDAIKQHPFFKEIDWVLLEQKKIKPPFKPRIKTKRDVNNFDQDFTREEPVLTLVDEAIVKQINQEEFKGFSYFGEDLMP
T17 sequence (P09429 whole entry, species assumed): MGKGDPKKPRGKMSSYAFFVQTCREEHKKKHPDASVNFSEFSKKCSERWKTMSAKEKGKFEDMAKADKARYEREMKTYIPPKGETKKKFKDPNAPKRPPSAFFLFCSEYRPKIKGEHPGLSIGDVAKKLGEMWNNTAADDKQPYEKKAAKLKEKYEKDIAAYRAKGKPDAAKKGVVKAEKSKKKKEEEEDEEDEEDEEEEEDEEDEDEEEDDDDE
T9 sequence (O96017 whole entry): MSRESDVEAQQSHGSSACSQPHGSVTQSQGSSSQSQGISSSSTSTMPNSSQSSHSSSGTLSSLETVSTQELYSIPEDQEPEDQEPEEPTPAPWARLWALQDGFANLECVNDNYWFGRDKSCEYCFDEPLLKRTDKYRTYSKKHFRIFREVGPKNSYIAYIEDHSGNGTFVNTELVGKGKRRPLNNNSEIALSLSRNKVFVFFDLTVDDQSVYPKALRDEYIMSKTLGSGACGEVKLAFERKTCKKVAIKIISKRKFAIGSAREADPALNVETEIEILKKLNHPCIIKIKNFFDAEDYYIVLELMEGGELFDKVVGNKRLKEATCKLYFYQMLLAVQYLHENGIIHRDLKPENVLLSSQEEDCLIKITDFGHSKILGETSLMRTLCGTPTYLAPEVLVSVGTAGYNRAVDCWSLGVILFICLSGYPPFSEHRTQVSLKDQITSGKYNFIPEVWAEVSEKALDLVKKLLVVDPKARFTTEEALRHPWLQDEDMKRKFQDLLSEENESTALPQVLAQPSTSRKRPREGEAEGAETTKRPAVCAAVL
T1 sequence (O14757 whole entry): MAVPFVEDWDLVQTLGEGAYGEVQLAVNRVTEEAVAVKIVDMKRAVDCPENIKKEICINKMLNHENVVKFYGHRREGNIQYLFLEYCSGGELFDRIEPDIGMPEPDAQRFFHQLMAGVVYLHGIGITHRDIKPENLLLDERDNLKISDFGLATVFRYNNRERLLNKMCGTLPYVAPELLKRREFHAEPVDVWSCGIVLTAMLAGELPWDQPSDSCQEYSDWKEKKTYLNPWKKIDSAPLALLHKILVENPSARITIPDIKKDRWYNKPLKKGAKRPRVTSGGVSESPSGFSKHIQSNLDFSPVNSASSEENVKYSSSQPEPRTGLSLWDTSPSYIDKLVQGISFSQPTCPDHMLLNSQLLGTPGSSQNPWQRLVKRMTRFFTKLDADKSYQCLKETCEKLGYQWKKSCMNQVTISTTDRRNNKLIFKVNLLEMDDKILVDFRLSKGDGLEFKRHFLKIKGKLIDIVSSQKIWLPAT
T2 sequence (Q05397 whole entry): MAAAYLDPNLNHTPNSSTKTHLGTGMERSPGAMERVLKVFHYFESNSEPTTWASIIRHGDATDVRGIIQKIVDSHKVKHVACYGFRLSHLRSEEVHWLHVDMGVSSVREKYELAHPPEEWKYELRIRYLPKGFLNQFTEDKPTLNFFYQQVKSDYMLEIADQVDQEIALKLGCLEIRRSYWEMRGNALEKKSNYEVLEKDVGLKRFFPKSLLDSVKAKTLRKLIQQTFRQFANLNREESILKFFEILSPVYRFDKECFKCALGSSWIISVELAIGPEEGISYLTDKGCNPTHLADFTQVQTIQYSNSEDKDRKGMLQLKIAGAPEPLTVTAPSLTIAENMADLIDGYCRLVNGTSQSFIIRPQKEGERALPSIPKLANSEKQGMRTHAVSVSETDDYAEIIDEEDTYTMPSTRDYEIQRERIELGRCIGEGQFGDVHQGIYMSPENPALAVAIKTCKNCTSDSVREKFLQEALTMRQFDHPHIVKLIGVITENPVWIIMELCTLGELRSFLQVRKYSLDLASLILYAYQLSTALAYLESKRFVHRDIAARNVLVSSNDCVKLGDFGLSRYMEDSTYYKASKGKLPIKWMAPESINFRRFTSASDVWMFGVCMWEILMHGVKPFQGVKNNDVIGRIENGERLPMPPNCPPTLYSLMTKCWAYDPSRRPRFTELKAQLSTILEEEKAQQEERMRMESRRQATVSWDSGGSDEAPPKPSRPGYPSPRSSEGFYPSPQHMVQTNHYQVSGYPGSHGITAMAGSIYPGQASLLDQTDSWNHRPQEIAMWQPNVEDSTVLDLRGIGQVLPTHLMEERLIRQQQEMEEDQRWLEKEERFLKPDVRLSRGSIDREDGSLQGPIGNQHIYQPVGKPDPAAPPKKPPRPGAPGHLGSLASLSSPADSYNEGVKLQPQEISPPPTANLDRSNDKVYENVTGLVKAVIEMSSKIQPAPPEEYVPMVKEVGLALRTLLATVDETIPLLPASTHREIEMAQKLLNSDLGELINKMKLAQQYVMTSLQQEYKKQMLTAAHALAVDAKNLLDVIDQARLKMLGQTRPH
T12 sequence (P10721 544-976): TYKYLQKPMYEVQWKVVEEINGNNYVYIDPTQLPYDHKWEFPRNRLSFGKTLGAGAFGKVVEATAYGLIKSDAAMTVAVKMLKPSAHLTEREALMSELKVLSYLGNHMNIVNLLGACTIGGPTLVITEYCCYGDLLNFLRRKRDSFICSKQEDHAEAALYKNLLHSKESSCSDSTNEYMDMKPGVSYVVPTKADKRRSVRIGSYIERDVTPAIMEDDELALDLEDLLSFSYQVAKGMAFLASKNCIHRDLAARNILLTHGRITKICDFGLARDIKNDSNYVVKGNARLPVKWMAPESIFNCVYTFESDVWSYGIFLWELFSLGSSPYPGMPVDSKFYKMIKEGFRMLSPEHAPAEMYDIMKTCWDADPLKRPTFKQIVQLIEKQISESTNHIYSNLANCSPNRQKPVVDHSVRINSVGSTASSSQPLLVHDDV
T14 sequence (P45983 1-364 limits assumed): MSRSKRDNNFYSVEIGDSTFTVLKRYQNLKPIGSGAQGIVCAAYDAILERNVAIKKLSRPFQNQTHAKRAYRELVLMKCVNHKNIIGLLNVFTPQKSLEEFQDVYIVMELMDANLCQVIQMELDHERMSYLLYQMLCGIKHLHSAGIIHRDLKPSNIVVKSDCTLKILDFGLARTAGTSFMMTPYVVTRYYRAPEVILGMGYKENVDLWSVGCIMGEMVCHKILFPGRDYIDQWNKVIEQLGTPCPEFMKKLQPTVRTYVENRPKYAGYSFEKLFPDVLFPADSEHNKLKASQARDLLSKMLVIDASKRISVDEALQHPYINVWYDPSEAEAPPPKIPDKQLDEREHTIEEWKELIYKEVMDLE
T7 sequence (O14733 whole entry S271E/T275E/S277E): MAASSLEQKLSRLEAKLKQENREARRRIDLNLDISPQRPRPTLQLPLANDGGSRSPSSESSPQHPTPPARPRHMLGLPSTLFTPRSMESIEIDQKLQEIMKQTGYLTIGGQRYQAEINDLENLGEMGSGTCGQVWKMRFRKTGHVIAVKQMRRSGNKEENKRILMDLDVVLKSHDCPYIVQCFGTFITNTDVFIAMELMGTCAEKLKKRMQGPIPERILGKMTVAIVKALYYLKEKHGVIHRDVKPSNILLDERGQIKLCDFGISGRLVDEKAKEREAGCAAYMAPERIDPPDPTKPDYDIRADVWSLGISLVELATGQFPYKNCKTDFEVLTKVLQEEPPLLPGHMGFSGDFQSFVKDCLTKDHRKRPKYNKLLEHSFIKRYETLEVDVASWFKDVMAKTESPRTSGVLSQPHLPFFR
T4 sequence (P12931 whole entry): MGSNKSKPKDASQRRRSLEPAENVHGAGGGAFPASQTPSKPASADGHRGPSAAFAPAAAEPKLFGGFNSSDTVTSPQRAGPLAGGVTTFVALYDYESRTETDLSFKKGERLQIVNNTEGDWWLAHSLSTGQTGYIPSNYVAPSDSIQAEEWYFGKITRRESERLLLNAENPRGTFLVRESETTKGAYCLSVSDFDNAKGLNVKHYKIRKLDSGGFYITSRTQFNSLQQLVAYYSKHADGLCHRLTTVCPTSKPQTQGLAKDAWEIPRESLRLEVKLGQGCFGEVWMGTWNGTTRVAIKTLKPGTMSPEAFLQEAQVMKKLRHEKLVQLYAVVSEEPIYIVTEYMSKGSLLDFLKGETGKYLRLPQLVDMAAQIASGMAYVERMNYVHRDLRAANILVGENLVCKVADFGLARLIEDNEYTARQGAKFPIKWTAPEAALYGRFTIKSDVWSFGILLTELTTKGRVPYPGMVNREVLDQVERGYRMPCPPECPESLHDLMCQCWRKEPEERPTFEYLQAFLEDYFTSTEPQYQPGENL

Work on `COC(=O)[C@]1(O)CC2O[C@@]1(C)n1c3ccccc3c3c4c(c5c6ccccc6n2c5c31)C(=O)NC4` [K-252a] yielded an inhibition at 0.2 µM [1] of 92.8%, an inhibition at 0.2 µM [2] of 53.5% and an inhibition at 0.2 µM [3] of 83.1%. For the same compound, the inhibition at 0.2 µM [4] was 20.6%, the inhibition at 0.2 µM [5] was 64.4% and the inhibition at 0.2 µM [6] was 13.3%. For the same compound, the inhibition at 0.2 µM [7] was 68.2%, the inhibition at 0.2 µM [8] was 67.2% and the inhibition at 0.2 µM [9] was 93.9%. It also gave an inhibition at 0.2 µM [10] of 83.2%, an inhibition at 0.2 µM [11] of 75.5% and an inhibition at 0.2 µM [12] of 87.3%. The inhibition at 0.2 µM [13] was 14.2%, the “HMGB1-induced BASMC cell migration” value [14] was “actively and concentration-dependently (in a nanomolar range) antagonizes HMGB1-induced BASMC cell migration” and the “HMGB1-induced BASMC cell proliferation” value [15] was “antagonizes BASMC cell proliferation at all the concentrations tested in a time-dependent fashion and in a nM range”. The inhibition at 0.2 µM [16] was 94.3%, the inhibition at 0.2 µM [17] was 94.4% and the inhibition at 0.2 µM [18] was 99.5%. For the same compound, the inhibition at 0.2 µM [19] was 60.9%, the “direct interaction between K-252a and HMGB1” value [20] was “absence of a direct interaction” and the inhibition at 0.2 µM [21] was 95.8%. For the same compound, the inhibition at 0.2 µM [22] was 32%, the “% Inhibition” value [23] was −0.2% and the inhibition at 0.2 µM [24] was -14.2%. For the same compound, the inhibition at 0.2 µM [25] was 83.5% and the inhibition at 0.2 µM [26] was 44.3%.
